ChEMBL document CHEMBL3870328, “Synthesis of novel Ral inhibitors: An in vitro and in vivo study” (Bioorg Med Chem Lett, 2016)

Assays:
[1] = Drug uptake in liver of mouse xenografted with human NCI-H2122 cells at 50 mg/kg, ip after 3 hrs by LC-MS/MS analysis; format: ADME, organism-based; details: read-out: Drug uptake
[2] = Drug metabolism in mouse xenografted with human NCI-H2122 cells assessed as M4 metabolite formation in kidney at 50 mg/kg, ip after 3 hrs by LC-MS/MS analysis; format: ADME, organism-based; details: in vivo
[3] = Drug uptake in kidney of mouse xenografted with human NCI-H2122 cells at 50 mg/kg, ip after 3 hrs by LC-MS/MS analysis; format: ADME, organism-based; details: read-out: Drug uptake
[4] = Drug metabolism in mouse xenografted with human NCI-H2122 cells assessed as M1 metabolite formation in plasma at 50 mg/kg, ip after 3 hrs by LC-MS/MS analysis; format: ADME, organism-based; details: in vivo
[5] = Drug uptake in tumor of mouse xenografted with human NCI-H2122 cells at 50 mg/kg, ip after 3 hrs by LC-MS/MS analysis; format: ADME, organism-based, Neoplasm; details: read-out: Drug uptake
[6] = Drug metabolism in mouse xenografted with human NCI-H2122 cells assessed as M3 metabolite formation in tumor at 50 mg/kg, ip after 3 hrs by LC-MS/MS analysis; format: ADME, organism-based, Neoplasm; details: in vivo
[7] = Drug uptake in lungs of mouse xenografted with human NCI-H2122 cells at 50 mg/kg, ip after 3 hrs by LC-MS/MS analysis; format: ADME, organism-based; details: lung, read-out: Drug uptake
[8] = Drug metabolism in mouse xenografted with human NCI-H2122 cells assessed as M3 metabolite formation in plasma at 50 mg/kg, ip after 3 hrs by LC-MS/MS analysis; format: ADME, organism-based; details: in vivo
[9] = Drug metabolism in mouse xenografted with human NCI-H2122 cells assessed as 6-amino-4-(2,5-dihydroxyphenyl)-3-(naphthalen-2-yl)-1,4-dihydropyrano[2,3-c]pyrazole-5-carbonitrile metabolite formation in tumor at 50 mg/kg, ip after 3 hrs by LC-MS/MS analysis; format: ADME, organism-based, Neoplasm; details: in vivo
[10] = Drug metabolism in mouse xenografted with human NCI-H2122 cells assessed as M1 metabolite formation in liver at 50 mg/kg, ip after 3 hrs by LC-MS/MS analysis; format: ADME, organism-based; details: in vivo
[11] = Drug metabolism in mouse xenografted with human NCI-H2122 cells assessed as M5 metabolite formation in liver at 50 mg/kg, ip after 3 hrs by LC-MS/MS analysis; format: ADME, organism-based; details: in vivo

## COc1ccc(OC)c(C2C(C#N)=C(N)Oc3[nH]nc(-c4ccc5ccccc5c4)c32)c1 (stereo unspecified)
[1]
  concentration at 3 h: 39700 ng/g
[2]
  Drug metabolism: 260 ng/g
[3]
  concentration at 3 h: 24600 ng/g
[4]
  Drug metabolism: 7.7 ng/mL
[5]
  concentration at 3 h: 5830 ng/g
[6]
  Drug metabolism: 0.7 ng/g
[7]
  concentration at 3 h: 21600 ng/g
[8]
  Drug metabolism: 14.2 ng/mL
[9]
  Drug metabolism: 0.6 ng/g
[10]
  Drug metabolism: 557.4 ng/g
[11]
  Drug metabolism: 72.6 ng/g
